Measured values from PubChem BioAssay (NCI).
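The concentration for 50% growth inhibition is given as GI50. TGI: total growth inhibition.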

Assays:
Test in all cases: NCI-60 cell line screen, 384-well format
[1] = tested on: SK-MEL-28 melanoma
[2] = tested on: MDA-MB-468 breast
[3] = tested on: MDA-MB-435 melanoma
[4] = tested on: M14 melanoma
[5] = tested on: RXF 393 renal
[6] = tested on: A498 renal
[7] = tested on: SR leukemia
[8] = tested on: SK-OV-3 ovarian
[9] = tested on: NCI-H522 lung
[10] = tested on: KM12 colon
[11] = tested on: K-562 leukemia
[12] = tested on: BT-549 breast
[13] = tested on: RPMI-8226 leukemia
[14] = tested on: IGROV1 ovarian
[15] = tested on: OVCAR-3 ovarian
[16] = tested on: COLO 205 colon
[17] = tested on: OVCAR-4 ovarian
[18] = tested on: SK-MEL-5 melanoma
[19] = tested on: MDA-MB-231 breast
[20] = tested on: SNB-19 CNS
[21] = tested on: UACC-62 melanoma
[22] = tested on: SF-268 CNS
[23] = tested on: NCI-H23 lung
[24] = tested on: SF-539 CNS
[25] = tested on: LOX IMVI melanoma
[26] = tested on: DU-145 prostate
[27] = tested on: NCI/ADR-RES ovarian
[28] = tested on: NCI-H226 lung
[29] = tested on: T-47D breast
[30] = tested on: MOLT-4 leukemia
[31] = tested on: SF-295 CNS
[32] = tested on: MCF7 breast
[33] = tested on: CAKI-1 renal
[34] = tested on: UACC-257 melanoma
[35] = tested on: PC-3 prostate
[36] = tested on: SW-620 colon
[37] = tested on: HT29 colon
[38] = tested on: U251 glioblastoma
[39] = tested on: HCC-2998 colon
[40] = tested on: NCI-H460 NSCLC
[41] = tested on: HOP-62 NSCLC
[42] = tested on: 786-0 renal
[43] = tested on: HCT-116 colon
[44] = tested on: OVCAR-8 ovarian
[45] = tested on: HCT-15 colon
[46] = tested on: TK-10 renal
[47] = tested on: A549 NSCLC
[48] = tested on: SN12C renal
[49] = tested on: MALME-3M melanoma
[50] = tested on: UO-31 renal
[51] = tested on: HL-60(TB) leukemia
[52] = tested on: HOP-92 NSCLC
[53] = tested on: CCRF-CEM leukemia
[54] = tested on: NCI-H322M lung
[55] = tested on: SK-MEL-2 melanoma
[56] = tested on: ACHN renal
[57] = tested on: OVCAR-5 ovarian

## COc1cc2c(cc1OC(C)C)[C@H](c1ccc(Cl)cc1)N(c1ccc(N(C)CC3CCC(N4CCN(C)C(=O)C4)CC3)cc1)C(=O)C2 (some centres undefined)
[1]
  GI50: 1.79 µM
  TGI: 3.19 µM
[2]
  GI50: 2.03 µM
  TGI: 3.47 µM
[3]
  GI50: 2.01 µM
  TGI: 3.46 µM
[4]
  GI50: 0.943 µM
  TGI: 2.16 µM
[5]
  GI50: 1.69 µM
  TGI: 3.07 µM
[6]
  GI50: 0.24 µM
  TGI: 1.32 µM
[7]
  GI50: 0.0291 µM
  TGI: 0.101 µM
[8]
  GI50: 1.58 µM
  TGI: 2.94 µM
[9]
  GI50: 1.86 µM
  TGI: 3.33 µM
[10]
  GI50: 1.9 µM
  TGI: 3.35 µM
[11]
  GI50: 1.76 µM
  TGI: 3.17 µM
[12]
  GI50: 1.58 µM
  TGI: 2.94 µM
[13]
  GI50: 1.53 µM
  TGI: 2.88 µM
[14]
  GI50: 1.37 µM
  TGI: 2.7 µM
[15]
  GI50: 1.69 µM
  TGI: 3.08 µM
[16]
  GI50: 1.86 µM
  TGI: 3.29 µM
[17]
  GI50: 1.76 µM
  TGI: 3.18 µM
[18]
  GI50: 1.3 µM
  TGI: 2.58 µM
[19]
  GI50: 1.8 µM
  TGI: 3.2 µM
[20]
  GI50: 1.94 µM
  TGI: 3.49 µM
[21]
  GI50: 0.0924 µM
  TGI: 1.58 µM
[22]
  GI50: 1.9 µM
  TGI: 3.34 µM
[23]
  GI50: 1.93 µM
  TGI: 4.37 µM
[24]
  GI50: 1.74 µM
  TGI: 3.14 µM
[25]
  GI50: 0.946 µM
  TGI: 2.13 µM
[26]
  GI50: 1.92 µM
  TGI: 3.51 µM
[27]
  GI50: 1.77 µM
  TGI: 3.22 µM
[28]
  GI50: 0.134 µM
  TGI: 0.374 µM
[29]
  GI50: 1.76 µM
  TGI: 3.23 µM
[30]
  GI50: 0.0378 µM
  TGI: 0.138 µM
[31]
  GI50: 1.62 µM
  TGI: 2.99 µM
[32]
  GI50: 0.378 µM
  TGI: 1.57 µM
[33]
  GI50: 0.146 µM
  TGI: 1.18 µM
[34]
  GI50: 1.35 µM
  TGI: 2.64 µM
[35]
  GI50: 1.79 µM
  TGI: 3.19 µM
[36]
  GI50: 1.91 µM
  TGI: 3.36 µM
[37]
  GI50: 1.79 µM
  TGI: 3.22 µM
[38]
  GI50: 1.75 µM
  TGI: 3.16 µM
[39]
  GI50: 1.73 µM
  TGI: 3.12 µM
[40]
  GI50: 0.316 µM
  TGI: 1.42 µM
[41]
  GI50: 2.07 µM
  TGI: 3.52 µM
[42]
  GI50: 1.72 µM
  TGI: 3.12 µM
[43]
  GI50: 0.349 µM
  TGI: 1.49 µM
[44]
  GI50: 1.82 µM
  TGI: 3.25 µM
[45]
  GI50: 1.82 µM
  TGI: 3.26 µM
[46]
  GI50: 1.82 µM
  TGI: 3.31 µM
[47]
  GI50: 0.387 µM
  TGI: 1.55 µM
[48]
  GI50: 1.81 µM
  TGI: 3.22 µM
[49]
  GI50: 1.18 µM
  TGI: 2.43 µM
[50]
  GI50: 0.288 µM
  TGI: 1.31 µM
[51]
  GI50: 1.96 µM
  TGI: 3.38 µM
[52]
  GI50: 1.59 µM
  TGI: 2.96 µM
[53]
  GI50: 1.94 µM
  TGI: 3.36 µM
[54]
  GI50: 1.71 µM
  TGI: 3.27 µM
[55]
  GI50: 1.81 µM
  TGI: 3.21 µM
[56]
  GI50: 0.243 µM
  TGI: 1.28 µM
[57]
  GI50: 1.85 µM
  TGI: 3.31 µM
